The results in this text go back to patent US11572341B2, “Biguanide compound and use thereof” (ImmunoMet Therapeutics Inc., priority 2014, dated 2023).

One experiment relates to A549 cell line. As to the kind of experiment: Oxygen consumption rate (OCR) and extracellular acidification rate (ECAR) in A549 cells. Format: cell-based. Particulars: Homo sapiens, A549, 3 hrs, control group set at 0%, phenformin set at 100%. As to the method:
A549 cell line (purchased from ATCC-American Type Culture Collection (ATCC)), a lung cancer cell line, is treated with the compounds and OCR and ECAR of the cells are measured and thereby those compounds which show an improved effect compared to phenformin are selected.
The cells are plated on an XF96 cell culture plate containing RPMI1640 medium at a concentration of 5×10^3 cells and cultured in 37° C., 5% CO2 conditions to allow them to be attached thereto.
After 24 hours, the cells are treated with the drug at a concentration of 10 μM for 2 hours, the existing medium is washed with a medium for XF analysis (15 mM D-glucose, 15 mM sodium pyruvate, 4 mM L-glutamine, pH 7.4) to remove the medium using a Prep station and treated again with the drugs, and cultured in 37° C., non-CO2 conditions in the Prep station for 1 hour. While culturing in the Prep station, a sensor cartridge is calibrated for 1 hour and added into a plate containing cells, and OCR and ECAR analyses are performed.
The measured values of OCR and ECAR of the compounds are calculated with reference to the measured values of OCR and ECAR of the control group which is set at 0% and the values of OCR and ECAR of phenformin, which was used as the reference drug, set at 100%, and those compounds which show an improved effect compared to those of phenformin are selected.
From the primarily-selected compounds, those compounds which show an improved effect are treated at various concentrations (0 μM, 0.5 μM, 1 μM, 5 μM, 10 μM, and 20 μM) and their reactivity according to concentration was obtained.

A further experiment deals with HCT116 cells. Description: Inhibitory effect against cancer cell proliferation (MTT). Format: cell-based, human. Particulars: Homo sapiens, HCT-116; HCT116, MTT, 48 hours; read-out: IC50 (uM) @ HCT116. As to the method: The formazane crystals thus formed were dissolved using dimethyl sulfoxide (DMSO) and absorbance of the solution was measured at 560 nm. After culturing for 48 hours, […] synthesized in Examples was indicated as cell viability (%) according to each treated concentration.

A further experiment has as its system AMPKa [pT172]. Description: AMPKa activation [pT172] in MCF7 cell. Format: cell-based.

Where a name gives a salt, the structure may show the parent alone. Read-outs that look alike come from different tables or passages of the source. Bounds are passed on as bounds.

Take `N=C(N)N/C(=N/CCc1ccc2c(c1)OCO2)NCCc1cccs1` [Example 104, N1-2-thiophen-2-)ethyl-N2-2-benzo[d][1,3]dioxol-5-yl)ethyl Biguanide Hydrochloride]: the Emax at 10 µM in the experiment with A549 cell line (read-out: ECAR (A549, 3 hrs)) is -8.3%; in the experiment on A549 cell line (read-out: OCR (A549, 3 hrs)), 31.3%.

Turning to `N=C(N)NC(=N)NCc1ccc(O)cc1F` [Example 146, N1-(2-fluoro-4-hydroxy)benzyl Biguanide Hydrochloride], the Emax at 10 µM in the experiment on A549 cell line (read-out: ECAR (A549, 3 hrs)) worked out at 28%; in the experiment on A549 cell line (read-out: OCR (A549, 3 hrs)), 109%.

On to `N=C(N)NC(=N)NCc1ccco1` [Example 144, N1-(furan-2-yl)methyl Biguanide Hydrochloride], for which the Emax at 10 µM amounted to 7% in the experiment on A549 cell line (read-out: ECAR (A549, 3 hrs)) and 47% in the experiment on A549 cell line (read-out: OCR (A549, 3 hrs)).

What is called IC50 is the concentration needed to halve the response being measured. Regarding `Cl.N=C(N)NC(=N)N1CCN(c2ccccn2)CC1` [Example 127, N1-4-(pyridin-2-yl)piperazine Biguanide Hydrochloride], the IC50 in the experiment on HCT116 cells is greater than 100 µM. Besides, in the experiment with AMPKa [pT172] (50 uM), the “AMPKa activation [pT172] (Unit/ml) @ MCF7 cell” value (“AMPKa activation [pT172]” below) is 5.8 Unit/ml. In addition, the Emax at 10 µM in the experiment with A549 cell line (read-out: ECAR (A549, 3 hrs)) came to 7%; with A549 cell line (read-out: OCR (A549, 3 hrs)), 10.2%.

Take `N=C(N)NC(=N)Nc1ccc(Br)cc1` [Example 116, N1-(4-bromo)phenyl Biguanide Hydrochloride]: the IC50 in the experiment on HCT116 cells came to 101 µM. For the same compound, the “AMPKa activation [pT172]” value in the experiment with AMPKa [pT172] (50 uM) came out at 25.9 Unit/ml. Also, the Emax at 10 µM in the experiment with A549 cell line (read-out: ECAR (A549, 3 hrs)) is -24%; in the experiment on A549 cell line (read-out: OCR (A549, 3 hrs)), 0%.

In the case of `N=C(N)N/C(=N/CCc1ccccc1)NCCc1cccs1` [Example 103, N1 (2-thiophen-2-yl)ethyl-N2-phenethyl Biguanide Hydrochloride], the Emax at 10 µM in the experiment on A549 cell line (read-out: ECAR (A549, 3 hrs)) is -43%; in the experiment with A549 cell line (read-out: OCR (A549, 3 hrs)), 36%.

`CN(C)C(=N)NC(=N)N(C)c1ccc(OC(F)(F)F)cc1` [Example 85, N1,N1-dimethyl-N5-methyl-N5-(4-trifluoromethoxy)phenyl Biguanide Hydrochloride]: the Emax at 10 µM was 31% in the experiment on A549 cell line (read-out: ECAR (A549, 3 hrs)) and -6% in the experiment with A549 cell line (read-out: OCR (A549, 3 hrs)).

For the compound `N=C(NC(=N)N1CCCC1)Nc1c(F)cccc1F` [Example 80, N1-pyrrolidin-N5-(2,6-difluoro)phenyl Biguanide Hydrochloride], the Emax at 10 µM in the experiment on A549 cell line (read-out: ECAR (A549, 3 hrs)) was found to be 1%; in the experiment on A549 cell line (read-out: OCR (A549, 3 hrs)) it was 3%.

For `Cl.N=C(N)NC(=N)Nc1ccc(N2CCOCC2)cc1` [Example 122, N1-(4-morpholin-4-yl)phenyl Biguanide Hydrochloride], the IC50 in the experiment on HCT116 cells is greater than 100 µM. Further, the “AMPKa activation [pT172]” value in the experiment with AMPKa [pT172] (50 uM) came to 5.9 Unit/ml. Also, the Emax at 10 µM came to 15.5% in the experiment on A549 cell line (read-out: ECAR (A549, 3 hrs)) and 13.3% in the experiment on A549 cell line (read-out: OCR (A549, 3 hrs)).

With `C/N=C(/NC(=N)N1CCCC1)N(C)c1ccc(OC(F)(F)F)cc1` [Example 106, N1-methyl-N1-(4-trifluoromethoxy)phenyl-N2-methyl-N5-pyrrolidine Biguanide Hydrochloride], the Emax at 10 µM in the experiment with A549 cell line (read-out: ECAR (A549, 3 hrs)) is -7.5%; with A549 cell line (read-out: OCR (A549, 3 hrs)) it was -6.6%.

Consider `C/N=C(/NC(=N)N1CCCC1)Nc1ccc(OC(F)(F)F)cc1` [Example 105, N1-(4-trifluoromethoxy)phenyl-N2-methyl-N5-pyrrolidine Biguanide Hydrochloride], for which the Emax at 10 µM is -25.5% in the experiment on A549 cell line (read-out: ECAR (A549, 3 hrs)) and 25.1% in the experiment on A549 cell line (read-out: OCR (A549, 3 hrs)).

With `COc1ccc(CCCNC(=N)NC(=N)N)cc1` [Example 148, N1-(4-methoxy)phenylpropyl Biguanide Hydrochloride], the Emax at 10 µM with A549 cell line (read-out: ECAR (A549, 3 hrs)) came to 160%; with A549 cell line (read-out: OCR (A549, 3 hrs)), 1%.

Consider `CC1CC(=O)N=C(NC(=N)N)N1.Cl` (stereo not drawn) [Example 164, Hydrochloride], for which the Emax at 10 µM in the experiment on A549 cell line (read-out: ECAR (A549, 3 hrs)) is 9%; in the experiment on A549 cell line (read-out: OCR (A549, 3 hrs)), -1%.

In the case of `N=C(N)NC(=N)NCCCc1ccc(F)cc1` [Example 147, N1-(4-fluoro)phenylpropyl Biguanide Hydrochloride], the Emax at 10 µM with A549 cell line (read-out: ECAR (A549, 3 hrs)) turned out to be 126%; in the experiment on A549 cell line (read-out: OCR (A549, 3 hrs)), 74%.

Consider `CC(C)NC(=N)NC(=N)NCc1cccnc1.Cl` [Example 6, N1-isopropyl-N5-1-(pyridin-3-yl)methyl Biguanide Hydrochloride], for which, in the experiment with AMPKa [pT172] (50 uM), the “AMPKa activation [pT172]” value was found to be 4.8 Unit/ml. Further, the Emax at 10 µM was 9.3% in the experiment on A549 cell line (read-out: ECAR (A549, 3 hrs)) and 16.7% with A549 cell line (read-out: OCR (A549, 3 hrs)).

`N=C(N)NC(=N)NCc1cccc(I)c1` [Example 150, N1-(3-iodo)benzyl Biguanide Hydrochloride]: the Emax at 10 µM in the experiment on A549 cell line (read-out: ECAR (A549, 3 hrs)) came to 125%; in the experiment on A549 cell line (read-out: OCR (A549, 3 hrs)) it was 105%.

As for `Cl.N=C(NCCc1ccc(Cl)cc1)NC(=N)N1CCCCC1` [Example 13, N1-piperidin-N5-4-chloro)phenethyl Biguanide Hydrochloride], in the experiment on HCT116 cells, the IC50 is greater than 100 µM. Also, the Emax at 10 µM in the experiment with A549 cell line (read-out: ECAR (A549, 3 hrs)) was 61%; in the experiment on A549 cell line (read-out: OCR (A549, 3 hrs)) it was -20%.

In the case of `N=C(N)NC(=N)NCc1ccccc1I` [Example 149, N1-(2-iodo)benzyl Biguanide Hydrochloride], the Emax at 10 µM in the experiment with A549 cell line (read-out: ECAR (A549, 3 hrs)) came out at 36%; in the experiment on A549 cell line (read-out: OCR (A549, 3 hrs)) it was 20%.

With `CN(C(=N)NC(=N)N1CCCC1)c1ccc(OC(F)(F)F)cc1` [Example 82, N1-pyrrolidin-N5-methyl-N5-(4-trifluoromethoxy)phenyl Biguanide Hydrochloride], the Emax at 10 µM came out at 6.9% in the experiment with A549 cell line (read-out: ECAR (A549, 3 hrs)) and 7.7% in the experiment on A549 cell line (read-out: OCR (A549, 3 hrs)).

Turning to `Cl.N=C(N)NC(=N)Nc1ccccc1` [Example 113, N1-phenyl Biguanide Hydrochloride], the IC50 with HCT116 cells stood at 72.7 µM. Besides, the results for the “AMPKa activation [pT172]” value in the experiment with AMPKa [pT172] (5 uM), in the experiment with AMPKa [pT172] (10 uM) and in the experiment on AMPKa [pT172] (50 uM) were 9.9 Unit/ml, 10.1 Unit/ml and 28.6 Unit/ml, respectively. Moreover, the Emax at 10 µM is -24% with A549 cell line (read-out: ECAR (A549, 3 hrs)) and -3% in the experiment on A549 cell line (read-out: OCR (A549, 3 hrs)).

Turning to `Cl.N=C(NCCc1ccccc1Cl)NC(=N)N1CCCCC1` [Example 14, N1-piperidin-N5-2-chloro)phenethyl Biguanide Hydrochloride], the IC50 with HCT116 cells is greater than 100 µM. The Emax at 10 µM in the experiment with A549 cell line (read-out: ECAR (A549, 3 hrs)) is 63%; with A549 cell line (read-out: OCR (A549, 3 hrs)) it was -7%.

Regarding `N=C(N)N/C(=N/C1CCCC1)NCc1ccc2c(c1)OCO2` [Example 107, N1-(benzo[d][1,3]dioxol-5-yl)methyl-N2-cyclopentyl Biguanide Hydrochloride], the Emax at 10 µM in the experiment on A549 cell line (read-out: ECAR (A549, 3 hrs)) was -8.9%; with A549 cell line (read-out: OCR (A549, 3 hrs)) it was -4.4%.

For the compound `Cl.N=C(N)NC(=N)NCc1ccc(F)cc1` [Example 132, N1-(4-fluoro)benzyl Biguanide Hydrochloride], in the experiment with HCT116 cells, the IC50 was greater than 100 µM. Further, the “AMPKa activation [pT172]” value in the experiment on AMPKa [pT172] (5 uM) turned out to be 6.1 Unit/ml; in the experiment with AMPKa [pT172] (50 uM), 8.1 Unit/ml. In addition, the Emax at 10 µM in the experiment with A549 cell line (read-out: ECAR (A549, 3 hrs)) turned out to be 44.7%; with A549 cell line (read-out: OCR (A549, 3 hrs)) it was 39.3%.

As to `CC1CCN(C(=N)NC(=N)NCc2cccc(C(F)(F)F)c2)CC1.Cl` [Example 60, N1-(4-methyl)piperidin-N5-(3-trifluoromethyl)benzyl Biguanide Hydrochloride], the IC50 in the experiment on HCT116 cells turned out to be 15.4 µM. The “AMPKa activation [pT172]” value with AMPKa [pT172] (5 uM) came out at 4.6 Unit/ml; in the experiment with AMPKa [pT172] (10 uM), 7.8 Unit/ml; in the experiment on AMPKa [pT172] (50 uM), 20.9 Unit/ml.
